Measurements taken from PMC6934184, “Selective DNA-PKcs inhibition extends the therapeutic index of localized radiotherapy and chemotherapy” (The Journal of Clinical Investigation, 2019).

Molecular target: T1, RAF1 (cRAF) Y340D Y341D (Homo sapiens, UniProt P04049, Y340D/Y341D)
T1 construct: purchased Thermo Fisher Scientific (Life Technologies) SelectScreen
Assay: SelectScreen Z'LYTE
Assay type: biochemical
Conditions: ATP 100 µM
In short: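 SelectScreen broad panel; activity (Z'LYTE, Adapta) plus binding formats. ATP: Km app for CSF1R Z'LYTE; 10 for CAMK1 Adapta. Readout = % per kinase.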

T1 sequence (P04049 whole entry Y340D/Y341D): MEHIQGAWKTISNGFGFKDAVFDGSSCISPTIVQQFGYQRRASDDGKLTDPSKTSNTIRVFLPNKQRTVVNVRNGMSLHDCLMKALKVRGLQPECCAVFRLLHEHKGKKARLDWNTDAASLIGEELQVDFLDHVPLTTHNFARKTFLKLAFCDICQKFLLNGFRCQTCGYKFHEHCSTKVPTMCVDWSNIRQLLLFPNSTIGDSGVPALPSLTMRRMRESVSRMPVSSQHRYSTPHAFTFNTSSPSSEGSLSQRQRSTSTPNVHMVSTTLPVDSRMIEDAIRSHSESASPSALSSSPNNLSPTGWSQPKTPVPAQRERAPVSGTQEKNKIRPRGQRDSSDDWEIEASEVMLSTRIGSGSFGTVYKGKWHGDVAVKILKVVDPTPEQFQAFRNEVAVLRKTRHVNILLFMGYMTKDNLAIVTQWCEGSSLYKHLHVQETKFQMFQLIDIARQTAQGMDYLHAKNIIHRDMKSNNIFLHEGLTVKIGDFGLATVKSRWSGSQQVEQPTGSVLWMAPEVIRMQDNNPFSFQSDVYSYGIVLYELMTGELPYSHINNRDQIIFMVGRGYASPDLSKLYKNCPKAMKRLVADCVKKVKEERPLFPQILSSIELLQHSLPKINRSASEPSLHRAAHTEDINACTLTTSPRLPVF

Question: With `CN(C(=O)CN1CCOCC1)c1ccc2sc3c(-c4cccc5c(=O)cc(N6CC7CCC(C6)O7)oc45)cccc3c2c1` [NU5455] as the molecule, how does the inhibition at 1 µM read?
Answer: Its inhibition at 1 µM is 7.9%.
